Where two headings read alike, the source gives them in different places.
Experiments:
[1] = test system: full length SMN2 minigene mRNA (HEK293H cells stably transfected with SMN2-A minigene); assay: RT-qPCR assay for SMN2 minigene pre-mRNA splicing in cultured cells; type: cell-based; settings: Homo sapiens, HEK293-H, 24 hours
[2] = test system: SMN protein in SMA patient fibroblast cells (GM03813); assay: SMN protein assay (HTRF) in cultured cells; type: cell-based; settings: Homo sapiens, SMA Type 1 patient fibroblasts, 48 hours; for EC (1.5-fold): concentration producing 1.5 times SMN protein vs vehicle, read-out: EC1.5x SMN protein; for maximal fold induction: relative to vehicle control, read-out: max. fold increase of SMN protein
Protocol: The SMN HTRF (homogeneous time resolved fluorescence) assay is used to quantify the level of SMN protein in SMA patient fibroblast cells treated with test compounds. Materials used and respective sources are listed below in Table 4.
Cells are thawed and cultured in DMEM-10% FBS for 72 hours. Cells are trypsinized, counted and re-suspended to a concentration of 25,000 cells/mL in DMEM-10% FBS. The cell suspensions are plated at 5,000 cells per well in a 96 well microtiter plate and incubated for […]. […] 1 μL of test compound solution is transferred to cell-containing wells and cells are incubated for 48 hours in a cell culture incubator (37° C., 5% CO2, 100% relative humidity). Triplicate samples are set up for each test compound concentration. After 48 hours, the supernatant is removed from the wells and 25 μL of the RIPA lysis buffer, containing protease inhibitors, is added to the wells and incubated with shaking at room temperature for 1 hour. 25 μL of the diluent is added and then 35 μL of the resulting lysate is transferred to a 384-well plate, where each well contains 5 μL of the antibody solution (1:100 dilution of anti-SMN d2 and anti-SMN cryptate in SMN reconstitution buffer). The plate is centrifuged for 1 minute to bring the solution to the bottom of the wells, then incubated overnight at room temperature. Fluorescence for each well of the plate at 665 nm and 620 nm is measured on an EnVision multilabel plate reader (Perkin-Elmer).
The normalized fluorescence signal is calculated for each sample, Blank and vehicle control well by dividing the signal at 665 nm by the signal at 620 nm. Normalizing the signal accounts for possible fluorescence quenching due to the matrix effect of the lysate. The ΔF value (a measurement of SMN protein abundance as a percent value) for each sample well is calculated by subtracting the normalized average fluorescence for the Blank control wells from the normalized fluorescence for each sample well, then dividing this difference by the normalized average fluorescence for the Blank control wells and multiplying the resulting value by 100. The ΔF value for each sample well represents the SMN protein abundance from test compound-treated samples. The ΔF value for each sample well is divided by the ΔF value for the vehicle control wells to calculate the fold increase in SMN protein abundance relative to the vehicle control. Table 5 provides EC1-5× concentrations for SMN protein expression that was obtained from the 7-point concentration data generated according to the above procedure for particular compounds of the present invention.
Table 6 provides the maximum fold increase of SMN protein that was obtained from the 7-point concentration data generated according to the above procedure for particular compounds of the present invention

[3] = concentration increasing full length SMN2 minigene mRNA 1.5-fold vs vehicle, read-out: EC1.5x minigene
[4] = Table 3 (title: production of full length SMN2 minigene mRNA), read-out: EC1.5x SMN protein

SMILES	EC (1.5-fold) [1, 3]	EC (1.5-fold) [2]	maximal fold induction [2]	EC (1.5-fold) [1, 4]
Cc1nc2ncc(-c3cc(=O)n4cc(N5CCNCC5)ccc4n3)cn2n1 [Example 1, 2-(2-methyl-[1,2,4]triazolo[1,5-a]pyrimidin-6-yl)-7-piperazin-1-yl-pyrido[1,2-a]pyrimidin-4-one]	0.0584 µM	0.221 µM	1.9	–
Cc1nc2ncc(-c3cc(=O)n4cc(N5C[C@@H](C)N[C@@H](C)C5)ccc4n3)cn2n1 [Example 2, 7-[(3R,5S)-3,5-dimethylpiperazin-1-yl]-2-(2-methyl-[1,2,4]triazolo[1,5-a]pyrimidin-6-yl)pyrido[1,2-a]pyrimidin-4-one]	0.067 µM	0.508 µM	1.93	–
Cc1nc2ncc(-c3cc(=O)n4cc(N5CC[C@@H](N(C)C)C5)ccc4n3)cn2n1 [Example 3, 7-[(3R)-3-(dimethylamino)pyrrolidin-1-yl]-2-(2-methyl-[1,2,4]triazolo[1,5-a]pyrimidin-6-yl)pyrido[1,2-a]pyrimidin-4-one]	0.0452 µM	0.52 µM	1.79	–
Cc1nc2ncc(-c3cc(=O)n4cc(N5CCCN(C)CC5)ccc4n3)cn2n1 [Example 4, 7-(4-methyl-1,4-diazepan-1-yl)-2-(2-methyl-[1,2,4]triazolo[1,5-a]pyrimidin-6-yl)pyrido[1,2-a]pyrimidin-4-one]	0.1 µM	0.324 µM	1.78	–
Cc1nc2ncc(-c3cc(=O)n4cc(N5CC6(CCNCC6)C5)ccc4n3)cn2n1 [Example 5, 7-(2,7-diazaspiro[3.5]nonan-2-yl)-2-(2-methyl-[1,2,4]triazolo[1,5-a]pyrimidin-6-yl)pyrido[1,2-a]pyrimidin-4-one]	< 0.0317 µM	0.106 µM	1.99	–
Cc1nc2ncc(-c3cc(=O)n4cc(N5CCNC(C)(C)C5)ccc4n3)cn2n1 [Example 6, 7-(3,3-dimethylpiperazin-1-yl)-2-(2-methyl-[1,2,4]triazolo[1,5-a]pyrimidin-6-yl)pyrido[1,2-a]pyrimidin-4-one]	0.201 µM	2.15 µM	1.7	–
Cc1nc2ncc(-c3cc(=O)n4cc(N5CC6(CNC6)C5)ccc4n3)cn2n1 [Example 7, 7-(2,6-diazaspiro[3.3]heptan-2-yl)-2-(2-methyl-[1,2,4]triazolo[1,5-a]pyrimidin-6-yl)pyrido[1,2-a]pyrimidin-4-one]	0.107 µM	0.247 µM	1.78	–
Cc1nc2ncc(-c3cc(=O)n4cc(N5CC6CN(C)CC6C5)ccc4n3)cn2n1 (stereo not drawn) [Example 8]	0.0659 µM	0.313 µM	1.85	–
Cc1nc2ncc(-c3cc(=O)n4cc(N5CC6CNC6C5)ccc4n3)cn2n1 (stereo not drawn) [Example 9, 7-(3,6-diazabicyclo[3.2.0]heptan-3-yl)-2-(2-methyl-[1,2,4]triazolo[1,5-a]pyrimidin-6-yl)pyrido[1,2-a]pyrimidin-4-one]	0.283 µM	2.88 µM	1.9	–
Cc1nc2ncc(-c3cc(=O)n4cc(N5CCN(C6CNC6)CC5)ccc4n3)cn2n1 [Example 10, 7-[4-(azetidin-3-yl)piperazin-1-yl]-2-(2-methyl-[1,2,4]triazolo[1,5-a]pyrimidin-6-yl)pyrido[1,2-a]pyrimidin-4-one]	5.93 µM	30 µM	1.5	–
Cc1nc2ncc(-c3cc(=O)n4cc(N5C[C@H](C)N[C@@H](C)C5)ccc4n3)cn2n1 [Example 11, 7-[(3S,5S)-3,5-dimethylpiperazin-1-yl]-2-(2-methyl-[1,2,4]triazolo[1,5-a]pyrimidin-6-yl)pyrido[1,2-a]pyrimidin-4-one]	< 0.03 µM	0.175 µM	1.77	–
Cc1nc2ncc(-c3cc(=O)n4cc(N5CCC(CN6CCCC6)CC5)ccc4n3)cn2n1 [Example 12, 7-[4-(pyrrolidin-1-ylmethyl)-1-piperidyl]-2-(2-methyl-[1,2,4]triazolo[1,5-a]pyrimidin-6-yl)-pyrido[1,2-a]pyrimidin-4-one]	0.161 µM	> 31.6 µM	1.36	–
Cc1nc2ncc(-c3cc(=O)n4cc(N5CCNC6(CC6)C5)ccc4n3)cn2n1 [Example 13, 7-(4,7-diazaspiro[2.5]octan-7-yl)-2-(2-methyl-[1,2,4]triazolo[1,5-a]pyrimidin-6-yl)pyrido[1,2-a]pyrimidin-4-one]	2.55 µM	14.1 µM	1.52	–
Cc1nc2ncc(-c3cc(=O)n4cc(N5CCN(C6COC6)CC5)ccc4n3)cn2n1 [Example 14, 7-[4-(oxetan-3-yl)piperazin-1-yl]2-(2-methyl-[1,2,4]triazolo[1,5-a]pyrimidin-6-yl)pyrido[1,2-a]pyrimidin-4-one]	26.2 µM	> 31.6 µM	1.35	–
Cc1nc2ccc(-c3cc(=O)n4cc(N5CCNCC5)cc(C)c4n3)nn2n1 [Example 15, 9-methyl-7-piperazin-1-yl-2-(2-methyl-[1,2,4]triazolo[1,5-b]pyridazin-6-yl)pyrido[1,2-a]pyrimidin-4-one]	< 0.03 µM	< 0.03 µM	1.82	–
Cc1nc2ncc(-c3cc(=O)n4cc(N5CCN[C@@H](C)C5)ccc4n3)cn2n1 [Example 16, 7-[(3S)-3-methylpiperazin-1-yl]-2-(2-methyl-[1,2,4]triazolo[1,5-a]pyrimidin-6-yl)pyrido[1,2-a]pyrimidin-4-one]	0.115 µM	0.281 µM	1.71	–
Cc1nc2ccc(-c3cc(=O)n4cc(N5CCN[C@H](C)C5)ccc4n3)nn2n1 [Example 17, 7-[(3R)-3-methylpiperazin-1-yl]-2-(2-methyl-[1,2,4]triazolo[1,5-b]pyridazin-6-yl)pyrido[1,2-a]pyrimidin-4-one]	0.0191 µM	0.0932 µM	1.82	–
Cc1nc2ccc(-c3cc(=O)n4cc(N5CCN[C@@H](C)C5)ccc4n3)nn2n1 [Example 18, 7-[(3S)-3-methylpiperazin-1-yl]-2-(2-methyl-[1,2,4]triazolo[1,5-b]pyridazin-6-yl)pyrido[1,2-a]pyrimidin-4-one]	–	0.0515 µM	1.72	0.0176 µM
Cc1nc2ccc(-c3cc(=O)n4cc(N5CCNCC5)ccc4n3)nn2n1 [Example 19, 7-piperazin-1-yl-2-(2-methyl-[1,2,4]triazolo[1,5-b]pyridazin-6-yl)pyrido[1,2-a]pyrimidin-4-one]	–	0.0392 µM	1.81	0.009 µM
Cc1nc2ccc(-c3cc(=O)n4cc(N5CCCN(C)CC5)ccc4n3)nn2n1 [Example 20, 7-(4-methyl-1,4-diazepan-1-yl)-2-(2-methyl-[1,2,4]triazolo[1,5-b]pyridazin-6-yl)pyrido[1,2-a]pyrimidin-4-one]	–	0.12 µM	1.77	0.0418 µM
Cc1nc2ncc(-c3cc(=O)n4cc(N5CC6(CN(C)C6)C5)ccc4n3)cn2n1 [Example 21, 7-(6-methyl-2,6-diazaspiro[3.3]heptan-2-yl)-2-(2-methyl-[1,2,4]triazolo[1,5-a]pyrimidin-6-yl)pyrido[1,2-a]pyrimidin-4-one]	–	0.56 µM	1.6	0.145 µM
Cc1nc2ccc(-c3cc(=O)n4cc(N5C[C@@H](C)N[C@@H](C)C5)ccc4n3)nn2n1 [Example 22, 7-[(3R,5S)-3,5-dimethylpiperazin-1-yl]-2-(2-methyl-[1,2,4]triazolo[1,5-b]pyridazin-6-yl)pyrido[1,2-a]pyrimidin-4-one]	–	0.228 µM	1.76	0.0434 µM
Cc1nc2ncc(-c3cc(=O)n4cc(N5CCN(C)CC5)ccc4n3)cn2n1 [Example 23, 7-(4-methylpiperazin-1-yl)-2-(2-methyl-[1,2,4]triazolo[1,5-a]pyrimidin-6-yl)pyrido[1,2-a]pyrimidin-4-one]	–	0.477 µM	1.68	0.0952 µM

From patent publication US10208067B2, “Compounds for treating spinal muscular atrophy” (Hoffmann-La Roche Inc., priority 2015, dated 2019)
